Test [1] has as its system SPI1 type III protein secretion of SipB by S. enterica. The experiment in a line: Secondary assay: Type III-dependent protein secretion of the SipB polypeptide by S. enterica. Format: cell-based. The note with it: Salmonella enterica, read-out: SipB IC50(uM). On the procedure: Secondary assay: Type III-dependent protein secretion of the SipB polypeptide by S. enterica. The SipB protein of S. enterica is another effector of the SPI1 type III protein secretion system from S. enterica. In this cell-based procedure, the Type III-dependent secretion of SipB from the bacterial cytoplasm to the extracellular medium was measured through its reactivity with a cognate mouse monoclonal.
Salmonella enterica cells growing either in the presence or in the absence of inhibitors are induced for the production of SipB. Following an established period of growth the cells are sedimented and the amount of SipB present in the supernatant is quantified with a scanning imager following application of immunoblot techniques. Detection may employ an anti-SipB mouse monoclonal antibody (e.g., obtained from Jorge Galan, SUNY at Stony Brook, N.Y.) followed by treatment with commercially available sheep anti-mouse polyclonal antibody conjugated with horseradish peroxidase. Thereafter the membrane is treated with a peroxidase chemiluminescent substrate and exposed to film for an appropriate exposure time. Inhibition may be measured relative to untreated controls.

For test [2], the system named is SPI1 type III protein secretion of SopE'-'Bla by Salmonella enterica. Put plainly: Primary assay: Type III protein secretion of the chimeric SopE'-'Bla polypeptide by Salmonella enterica. The note with it: read-out: SopE IC50(uM). It is filed as cell-based. The source says: Primary assay: Type III protein secretion of the chimeric SopE′-′Bla polypeptide by Salmonella enterica. This procedure is a cell-based assay that measures the type III-dependent secretion by Salmonella enterica of a plasmid-encoded chimeric polypeptide whose synthesis can be regulated, and which is endowed with an enzymatic activity that can be monitored […] by hydrolysis of a substrate that is unable to penetrate into the bacterial cytoplasm within the time constraints of the reaction. Thus, the colorimetric reaction is not influenced by SopE′-′Bla polypeptide in the bacterial cytoplasm. Instead, it effectively measures the amount of polypeptide that has been secreted from the S. enterica cytoplasm to the extracellular medium via type III system protein secretion.
The SopE′-′Bla recombinant polypeptide consists of two functionally distinct domains spliced together. The N-terminus domain is encoded by a polynucleotide region specifying the signal for type III secretion of the SopE polypeptide of S. enterica, an effector of the SPI1 type III protein secretion system. The C-terminus domain of SopE′-′Bla consists of a 263 amino acid peptide sequence that corresponds to the TEM-1 β-lactamase expressed by plasmid pBR322 but without its N-terminal signal sequence. The TEM-1 β-lactamase part of the SopE′-′Bla chimeric polypeptide is used as a reporter enzyme. It is capable of hydrolyzing nitrocefin resulting in a product whose accumulation can be monitored by colorimetric detection. The secretion of the SopE′-′Bla chimeric polypeptide from the cytoplasm to the extracellular medium is dependent on type III protein secretion.
For this procedure, cells grown under conditions known to favor a functional SPI1 secretion system are induced for expression of the SopE′-′Bla protein and grown either in the presence or in the absence of putative inhibitors for determined time. Nitrocefin is then added to the various cultures and its hydrolysis are used for quantitation. An inhibitor of Type III protein secretion is generally a compound that reduces the signal of the enzymatic reaction by decreasing the amount of SopE′-′Bla secreted into the extracellular medium.

The values that follow come from US20050282824A1, “Substituted pyrimidines as inhibitors of bacterial type III protein secretion systems” (priority 2004, published 2005).

Take `CC1CCN(c2nc(C(=O)N[C@@H](CSCc3ccccc3)C(=O)O)cc(N3CCN(c4nccc(C(F)(F)F)n4)CC3)n2)CC1` [Compound 46, (R)-3-Benzylsulfanyl-2-({2-(4-methylpiperidin-1-yl)-6-[4-(4-trifluoromethyl-pyrimidin-2-yl)piperazin-1-yl]pyrimidine-4-carbonyl}amino)propionic acid]: the IC50 in test [1] is 10.6 µM; in test [2], 3.4 µM.

In the case of `O=C(N[C@@H](CSCc1ccccc1)C(=O)O)c1cc(N2CCN(c3nccc(C(F)(F)F)n3)CC2)nc(-c2ccc([N+](=O)[O-])cc2)n1` [Compound 52, (R)-3-Benzylsulfanyl-2-({2-(4-nitrophenyl)-6-[4-(4-trifluoromethylpyrimidin-2-yl)-piperazin-1-yl]pyrimidine-4-carbonyl}amino)propionic acid], the figures for the IC50 in test [1] and in test [2] were 15 µM and 10.4 µM, respectively.

Turning to `O=C(N[C@@H](COCc1ccccc1)C(=O)O)c1cc(N2CCCCC2)nc(N2CCC(c3ccccc3)CC2)n1` [Compound 28, (S)-3-Benzyloxy-2-{[2-(4-phenylpiperidin-1-yl)-6-piperidin-1-yl-pyrimidine-4-carbonyl]amino}propionic acid], the IC50 in test [1] was 18.5 µM; in test [2] it was 5.2 µM.

As to `O=C(N[C@H](Cc1ccc(Cl)cc1)C(=O)O)c1cc(N2CCc3ccccc3C2)nc(-c2cccc(C(F)(F)F)c2)n1` [Compound 7, (R)-3-(4-Chlorophenyl)-2-{[6-(3,4-dihydro-1H-isoquinolin-2-yl)-2-(3-trifluoromethylphenyl)pyrimidine-4-carbonyl]amino}propionic acid], the IC50 is above 100 µM in test [1] and 1.2 µM in test [2].

`O=C(N[C@@H](COCc1ccccc1)C(=O)O)c1cc(N2CCN(c3nccc(C(F)(F)F)n3)CC2)nc(-c2cccs2)n1` [Compound 57, (S)-3-Benzyloxy-2-({2-thiophen-2-yl-6-[4-(4-trifluoromethylpyrimidin-2-yl)-piperazin-1-yl]pyrimidine-4-carbonyl}amino)propionic acid]: the IC50 was found to be 13.3 µM in test [1] and 28.7 µM in test [2].

Regarding `O=C(NC(Cc1ccc(Cl)cc1)C(=O)O)c1cc(N2CCN(c3nccc(C(F)(F)F)n3)CC2)nc(-c2ccoc2)n1` (stereo not drawn) [Compound 62, 3-(4-Chlorophenyl)-2-({2-furan-3-yl-6-[4-(4-trifluoromethylpyrimidin-2-yl)-piperazin-1-yl]pyrimidine-4-carbonyl}amino)propionic acid], the IC50 in test [1] was determined as 12.6 µM; in test [2], 5.4 µM.

As to `O=C(N[C@H](Cc1ccc(Cl)cc1)C(=O)O)c1cc(N2CCc3ccccc3C2)nc(-c2ccc(C(F)(F)F)cc2)n1` [Compound 8, (R)-3-(4-Chlorophenyl)-2-{[6-(3,4-dihydro-1H-isoquinolin-2-yl)-2-(4-trifluoromethylphenyl)pyrimidine-4-carbonyl]amino}propionic acid], the values for the IC50 in test [1] and in test [2] were above 100 µM and 2 µM, respectively.

`CC1CCN(c2cc(C(=O)N[C@@H](CSCc3ccccc3)C(=O)O)nc(-c3ccc(Oc4ccccc4)cc3)n2)CC1` [Compound 37, (R)-3-Benzylsulfanyl-2-{[6-(4-methylpiperidin-1-yl)-2-(4-phenoxyphenyl)-pyrimidine-4-carbonyl]amino}propionic acid]: the IC50 in test [1] is above 100 µM; in test [2], 1.7 µM.

For the compound `O=C(N[C@@H](CSCc1ccccc1)C(=O)O)c1cc(N2CCN(c3nccc(C(F)(F)F)n3)CC2)nc(-c2ccc(F)cc2)n1` [Compound 55, (R)-3-Benzylsulfanyl-2-({2-(4-fluorophenyl)-6-[4-(4-trifluoromethylpyrimidin-2-yl)-piperazin-1-yl]pyrimidine-4-carbonyl}amino)propionic acid], the IC50 is 20.5 µM in test [1] and 2.4 µM in test [2].
